Among the data in ChEMBL document CHEMBL6096725, “Repurposing Linezolid in Conjunction with Histone Deacetylase Inhibitor Access in the Realm of Glioblastoma Therapies” (J Med Chem, 2025) are Activity, inhibition and Drug uptake values, retold here.

The source made the active and inactive calls. The calls are words filed in the database; no cut-off is given here.

The test system of series [1] is TZM-resistant GBM cell. The series is described as follows: Disruption of DNA repair in patient-derived human TMZ-resistant GBM cells assessed as decrease in RAD51 level at 20 uM upto 80 hrs by Western blot analysis. In kind it is functional, cell-based.
The subject of series [2] is TZM-resistant GBM cell. The series is described as follows: Disruption of DNA repair in patient-derived human TMZ-resistant GBM cells assessed as decrease in CtIP level at 20 uM upto 80 hrs by Western blot analysis. In kind it is functional, cell-based. A general note: A western blot detects proteins with antibodies after separation by electrophoresis.
The subject of series [3] is TZM-resistant GBM cell. The series is described as follows: Suppression of mitotic nuclear division in patient-derived human TMZ-resistant GBM cells by GSEA analysis. In kind it is functional, cell-based.
In series [4] the target is T1, Histone deacetylase (Homo sapiens) (UniProt Q13547+O15379+Q9UBN7+Q92769+Q9UQL6+Q8WUI4+Q9BY41+Q96DB2+P56524+Q9UKV0+Q969S8). Put plainly: Inhibition of HDAC in human U-87 MG cells assessed as increase in acetyl histone H3 at K18 sites at 10 uM incubated for 1 hr by Western blot analysis. In kind it is cell-based.
The test system of series [5] is TZM-resistant GBM cell. The series is described as follows: Antitumor activity against patient-derived human TMZ-resistant GBM cells implanted in C57BL/6 mouse assessed as inhibition of tumor cell growth in brain at 10 to 20 mg/kg administered on every 3 days measured for 60 days in presence of TMZ. Type of series: functional, organism-based. To be noted: dose 10-20 mg/kg, time 60.0 day.

Series [6] concerns TZM-resistant GBM cell. Put plainly: Suppression of DNA replication in patient-derived human TMZ-resistant GBM cells by GSEA analysis. In kind it is functional, cell-based.
The target in series [7] is T1, Histone deacetylase (Homo sapiens). The series is described as follows: Inhibition of HDAC in human U-87 MG cells assessed as increase in acetyl histone H3 at K9 sites at 10 uM incubated for 1 hr by Western blot analysis. In kind it is cell-based.
The target is the same in series [8]. The series is described as follows: Inhibition of HDAC in human U-87 MG cells assessed as increase in acetyl histone H3 at K16 sites at 10 uM incubated for 1 hr by Western blot analysis. Type of series: cell-based.
Series [9] deals with U-87 MG. Put plainly: Disruption of DNA homologous recombination repair in human U-87 MG cells assessed as HR repaired cells at 5 uM incubated for 48 hrs by flow cytometry relative to control. In kind it is functional, U-87MG ATCC. In general terms: In flow cytometry, cells or beads pass a laser one at a time.
Series [10] relates to TZM-resistant GBM cell. The series is described as follows: Disruption of DNA repair in patient-derived human TMZ-resistant GBM cells assessed as decrease in CtIP level at 40 uM upto 80 hrs by Western blot analysis. In kind it is functional, cell-based.
The nature of series [11]: Drug uptake in C57BL/6 mouse brain at 360 mg/kg, ip measured after 30 mins by UPLC analysis. Type of series: ADME, organism-based. The note with it: in vivo, 0.5 h.
The next series relates to Mus musculus. Put plainly: In vivo antitumor activity against patient-derived human TMZ-resistant GBM cells implanted in C57BL/6 mouse assessed as increase in animal survival at 10 to 20 mg/kg administered on every 3 days measured for 60 days in presence of TMZ. To be noted: dose 10-20 mg/kg, time 60.0 day. In kind it is functional, organism-based.
Series [12] relates to TMZ-resistant CT-2A cell. The series is described as follows: Antitumor activity against mouse TMZ-resistant CT-2A cells implanted in C57BL/6 mouse assessed as tumor growth inhibition at 50 mg/kg, po measured for 17 to 25 days by IVIS analysis. Type of series: functional, organism-based. To be noted: time 17-25 day.
For series [13], the target named is T1, Histone deacetylase (Homo sapiens). The series is described as follows: Inhibition of HDAC in human U-87 MG cells assessed as increase in acetyl histone H3 at K56 sites at 10 uM incubated for 1 hr by Western blot analysis. Type of series: cell-based.
For series [14] the target is unchanged. Put plainly: Inhibition of HDAC in human U-87 MG cells assessed as increase in acetyl histone H3 at K27 sites at 10 uM incubated for 1 hr by Western blot analysis. In kind it is cell-based.
The test system of series [15] is TZM-resistant GBM cell. The series is described as follows: Induction of cell cycle arrest in patient-derived human TMZ-resistant GBM cells assessed as accumulation of cells at G2/M phase at 1 to 20 uM. The note with it: dose 1-20 µM. In kind it is functional, cell-based.
Series [16] relates to TZM-resistant GBM cell. Put plainly: Disruption of DNA repair in patient-derived human TMZ-resistant GBM cells assessed as decrease in RAD51 level upto 80 uM incubated for 72 hrs by Western blot analysis. Type of series: functional, cell-based.
Series [17] concerns U-87 MG. The series is described as follows: Disruption of DNA homologous recombination repair in human U-87 MG cells assessed as HR repaired cells at 2.5 uM incubated for 48 hrs by flow cytometry relative to control. Type of series: functional, U-87MG ATCC. The note with it: […].
Series [18] concerns the target T1, Histone deacetylase (Homo sapiens). The series is described as follows: Inhibition of HDAC in human U-87 MG cells assessed as increase in acetyl histone H3 at K5 sites at 10 uM incubated for 1 hr by Western blot analysis. Type of series: cell-based.
Series [19] deals with TZM-resistant GBM cell. Put plainly: Induction of cell cycle arrest in patient-derived human TMZ-resistant GBM cells assessed as decrease in accumulation of cells at G0/G1 phase at 1 to 20 uM. Type of series: functional, cell-based. The note with it: dose 1-20 µM.
The subject of series [20] is TZM-resistant GBM cell. The series is described as follows: Disruption of DNA repair in patient-derived human TMZ-resistant GBM cells assessed as increase in ATM phosphorylation upto 80 uM incubated for 72 hrs by Western blot analysis. In kind it is functional, cell-based.
The test system of series [21] is TZM-resistant GBM cell. The series is described as follows: Disruption of DNA repair in patient-derived human TMZ-resistant GBM cells assessed as decrease in CtIP level upto 80 uM incubated for 72 hrs by Western blot analysis. Type of series: functional, cell-based.
Series [22] deals with T1, Histone deacetylase (Homo sapiens). The series is described as follows: Inhibition of HDAC in human U-87 MG cells assessed as increase in acetyl histone H3 at K8 sites at 10 uM incubated for 1 hr by Western blot analysis. Type of series: cell-based.
In series [23] the test system is TZM-resistant GBM cell. Put plainly: Disruption of DNA repair in patient-derived human TMZ-resistant GBM cells assessed as decrease in RPA32 level upto 80 uM incubated for 72 hrs by Western blot analysis. In kind it is functional, cell-based.
Series [24] addresses T1, Histone deacetylase (Homo sapiens). The series is described as follows: Inhibition of HDAC in human U-87 MG cells assessed as increase in acetyl histone H3 at K14 sites at 10 uM incubated for 1 hr by Western blot analysis. In kind it is cell-based.
Series [25] has as its system TZM-resistant GBM cell. Put plainly: Induction of RAD51 degradation in human TMZ-resistant GBM cells assessed increase in RAD51 ubiquitination upto 20 uM incubated for 24 hrs by Western blot analysis. In kind it is cell-based.
The test system of series [26] is TMZ-resistant CT-2A cell. Put plainly: Antitumor activity against mouse CT-2A cells implanted in C57BL/6 mouse assessed as tumor growth inhibition at 10 mg/kg, ip measured for 10 to 17 days by IVIS analysis. In kind it is functional, organism-based. To be noted: time 10-17 day.
Series [27] can be described thus: Drug uptake in C57BL/6 mouse plasma at 360 mg/kg, ip measured after 30 mins by UPLC analysis. In kind it is ADME, organism-based. To be noted: in vivo, 0.5 h.
The test system of series [28] is TZM-resistant GBM cell. Put plainly: Effect on cellular proliferation dynamics in patient-derived human TMZ-resistant GBM cells at 10 uM incubated for 72 hrs by RNA-seq analysis. Type of series: functional, cell-based.
The subject of series [29] is TZM-resistant GBM cell. The series is described as follows: Disruption of DNA repair in patient-derived human TMZ-resistant GBM cells assessed as decrease in RAD51 level at 40 uM upto 80 hrs by Western blot analysis. Type of series: functional, cell-based.
The target in series [30] is T1, Histone deacetylase (Homo sapiens). Put plainly: Inhibition of HDAC in human U-87 MG cells assessed as increase in acetyl histone H3 at K4 sites at 10 uM incubated for 1 hr by Western blot analysis. Type of series: cell-based.

As for `C[C@@H]1C[C@@H]([C@H](O)CC2CC(=O)NC(=O)C2)C(=O)[C@@H](C)C1`, the Activity result with TZM-resistant GBM cell [1] and in the series with TZM-resistant GBM cell [2] was “Active; Less Pronounced Effect Observed” throughout.
Turning to `O=C(/C=C/c1ccc(CNC[C@H]2CN(c3ccc(N4CCOCC4)c(F)c3)C(=O)O2)cc1)NO`, the outcome with TZM-resistant GBM cell [3], in the series on TZM-resistant GBM cell [6], in the series on Mus musculus, in the series with TZM-resistant GBM cell [15], in the series on TZM-resistant GBM cell [16] and with TZM-resistant GBM cell [19] was Active. Moreover, the outcome with TZM-resistant GBM cell [21], in the series on TZM-resistant GBM cell [23], with TZM-resistant GBM cell [25] and in the series with TZM-resistant GBM cell [28] was Active. Further, the inhibition result (in [4]; in the series with TZM-resistant GBM cell [5]; in series [7]; in [8]; with TMZ-resistant CT-2A cell [12]; in series [13]) was “Active” throughout. In addition, the inhibition entry (in series [14]; in series [18]; in series [22]; in series [24]; in the series on TMZ-resistant CT-2A cell [26]; in series [30]) was “Active” each time. In addition, the Activity is 5.06% in the series with U-87 MG [9]; “Active; Rapid And Significant Decrease In Expression Observed Over Time” with TZM-resistant GBM cell [10]; 11.4% in the series with U-87 MG [17]; “Active; Result Suggests Activation Of Physiological Response To Dsbs Induced By Compound” in the series on TZM-resistant GBM cell [20]; “Active; Rapid And Significant Decrease In Expression Observed Over Time” in the series on TZM-resistant GBM cell [29]. Besides, the Drug uptake entry in [11] and in series [27] was “Active” throughout.
